Source: PMC12480751, “A quantitative high-throughput screening pipeline to identify small molecule inhibitors of Chikungunya nsP2 protease” (Scientific Reports, 2025)

Assays:
[1] = target: T1, CHIKV nsP2pro (Chikungunya virus, UniProt Q8JUX6); assay: FRET-based nsP2pro proteolytic assay with peptide 2 (nsp3/4 site), 1,536-well qHTS; assay type: biochemical
[2] = target: T2, nsP2 protease (Chikungunya virus, UniProt Q8JUX6); assay: cell-based; assay type: cell-based
T2 construct: expressed in transfected cells; host or cells: HEK293T (the results text says HEK293), transient co-transfection in pcDNA3.1(+)
T2 sequence (Q8JUX6 755-1333 limits assumed): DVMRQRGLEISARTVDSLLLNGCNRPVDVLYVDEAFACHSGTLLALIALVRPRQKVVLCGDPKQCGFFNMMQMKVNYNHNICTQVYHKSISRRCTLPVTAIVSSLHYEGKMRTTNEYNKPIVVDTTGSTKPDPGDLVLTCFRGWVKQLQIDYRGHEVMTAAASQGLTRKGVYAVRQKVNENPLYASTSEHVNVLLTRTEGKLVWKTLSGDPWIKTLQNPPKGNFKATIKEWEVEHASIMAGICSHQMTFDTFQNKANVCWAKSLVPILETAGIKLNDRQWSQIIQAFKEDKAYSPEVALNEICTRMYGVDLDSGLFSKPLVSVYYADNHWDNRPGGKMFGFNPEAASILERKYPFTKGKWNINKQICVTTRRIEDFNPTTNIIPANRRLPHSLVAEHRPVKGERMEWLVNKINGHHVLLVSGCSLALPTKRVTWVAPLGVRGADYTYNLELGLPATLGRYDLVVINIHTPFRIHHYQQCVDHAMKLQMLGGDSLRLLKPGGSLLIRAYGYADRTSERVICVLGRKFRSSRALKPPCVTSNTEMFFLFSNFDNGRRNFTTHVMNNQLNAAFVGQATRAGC

[3] = tested on: SNB19 cells; assay: CellTiter-Glo cell viability assay of SNB19 cells; assay type: cell-based, human; details: 48 h
Protocol: Cells were harvested in growth media and dispensed (5 µL /1,000 cells/well) onto 1536-well white plates (Aurora #EWB041000A) using a Multidrop Combi. Control and test compounds were added (25 nL) using an Echo 650 liquid handler. Plates were incubated for 48 h at 37 °C and 5% CO2 and then equilibrated to room temperature prior to addition of 4 µL /well of CellTiter-Glo (Promega) using a Multidrop Combi. Plates were subsequently incubated for 15 min at room temperature and centrifuged for 1 min at 1000 rpm. Luminescence was read on a ViewLux imager equipped with clear filters.

[4] = target: T3, full-length nsP2 (Chikungunya virus, UniProt Q8JUX6, C1333A); assay: FRET-based full-length nsP2 proteolytic assay with peptide 2; assay type: biochemical; details: full-length nsP2 and peptide 2; read-out: IC50, inhibition of nsp3/4 cleavage by full-length enzyme
T3 sequence (Q8JUX6 536-1333 C1333A): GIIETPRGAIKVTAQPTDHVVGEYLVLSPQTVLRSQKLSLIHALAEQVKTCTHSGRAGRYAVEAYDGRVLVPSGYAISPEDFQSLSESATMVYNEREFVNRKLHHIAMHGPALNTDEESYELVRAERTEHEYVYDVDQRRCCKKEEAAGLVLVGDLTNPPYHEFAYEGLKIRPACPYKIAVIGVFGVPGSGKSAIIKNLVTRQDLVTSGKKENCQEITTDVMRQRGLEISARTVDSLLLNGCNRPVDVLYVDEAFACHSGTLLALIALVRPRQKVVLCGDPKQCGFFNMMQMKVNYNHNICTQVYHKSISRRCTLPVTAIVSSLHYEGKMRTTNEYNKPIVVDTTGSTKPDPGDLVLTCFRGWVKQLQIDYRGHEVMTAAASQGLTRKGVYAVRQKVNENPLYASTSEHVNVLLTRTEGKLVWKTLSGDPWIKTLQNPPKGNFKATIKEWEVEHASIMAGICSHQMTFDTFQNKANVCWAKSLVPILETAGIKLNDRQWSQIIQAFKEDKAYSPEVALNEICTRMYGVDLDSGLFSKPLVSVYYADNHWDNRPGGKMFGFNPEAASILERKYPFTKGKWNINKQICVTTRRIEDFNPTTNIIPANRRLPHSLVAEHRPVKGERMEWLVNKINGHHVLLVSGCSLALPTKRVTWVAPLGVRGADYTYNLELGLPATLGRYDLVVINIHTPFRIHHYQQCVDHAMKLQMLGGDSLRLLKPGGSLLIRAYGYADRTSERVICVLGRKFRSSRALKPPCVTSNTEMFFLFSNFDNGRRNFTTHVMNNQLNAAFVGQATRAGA
Protocol: (§1) To gain further insight on their therapeutic potential, we investigated whether confirmed hits inhibit proteolytic activity in the context of full-length nsP2 protein rather than isolated protease domain[13]. To test the set of confirmed inhibitors, we chose peptide 2 substrate and full-length enzyme concentrations of 1 μM and 150 nM, respectively. Compound activity correlated well between nsP2pro and full-length enzyme (Fig. 2A). Additionally, we tested whether hits inhibit proteolysis of the nsP2/3 site.
All reactions were incubated at room temperature (RT).
Two point five μM peptide 2 substrate and 150 nM nsP2pro were selected to run the assay into 1536-well plate format. ZnAc was used as a positive control in the assay (50 µM). […] For primary screens, compounds were tested at 7 concentrations, 1:3 dilution points ranging from 25 µM to 34 nM. […] Four µL nsP2pro enzyme mix in assay buffer (10 mM Tris⋅HCl pH 8.0 with 0.01% Tween 20) was dispensed into the plate using a BioRAPTR FRD liquid dispenser (Beckman Coulter). […] After 1 h, plates were immediately read on a ViewLux high-throughput CCD imager (Exposure = 10 s, Gain = High, Speed = Slow, Binning = 2X). The above assay was also incorporated in the NCATS HTS facility, which allowed for robotic liquid and compound dispensing, microplate handling, and fluorescence reading. […]

[5] = target: T1, CHIKV nsP2pro; assay: FRET-based nsP2pro proteolytic assay with peptide 3 (nsp2/3 site); assay type: biochemical; details: nsP2pro and peptide 3; read-out: IC50, inhibition of cleavage of nsp2/3 peptide by nsp2pro
Protocol: as §1
Two point five μM peptide 2 substrate and 150 nM nsP2pro were selected to run the assay into 1536-well plate format. ZnAc was used as a positive control in the assay (50 µM). […] For primary screens, compounds were tested at 7 concentrations, 1:3 dilution points ranging from 25 µM to 34 nM. […] Four µL nsP2pro enzyme mix in assay buffer (10 mM Tris⋅HCl pH 8.0 with 0.01% Tween 20) was dispensed into the plate using a BioRAPTR FRD liquid dispenser (Beckman Coulter). The plate was incubated at RT (protected from light) for 15 min before addition of 4 µL substrate in assay buffer. After 1 h, plates were immediately read on a ViewLux high-throughput CCD imager (Exposure = 10 s, Gain = High, Speed = Slow, Binning = 2X). The above assay was also incorporated in the NCATS HTS facility, which allowed for robotic liquid and compound dispensing, microplate handling, and fluorescence reading. […]

[6] = tested on: CHIKV; parameters: method as in PMID 30018455; details: cited from earlier work

SMILES: CC(C)n1nc(C#Cc2ccccc2)c2c(N)ncnc21 [SPP 86]
- Enzymatic % Efficacy ([1]; nsP2pro biochemical assay, 13 cell-active hits): -114.8%
- IC50 ([1]; nsP2pro biochemical assay, 13 cell-active hits, read-out: Enzymatic IC50): 8 µM
- Cell-based % Efficacy [2]: 146.3%
- AC50 ([2]; read-out: Cell-based AC50): 18.3 µM
- CC50 [3]: 16.4 µM

SMILES: CC(=O)[O-].CC(=O)[O-].[Zn+2] [ZnAc, Zinc acetate]
- IC50 ([1]; nsP2pro and peptide 2, read-out: IC50, inhibition of nsp3/4 cleavage by nsP2pro): 0.192 ± 0.012 µM
- IC50 [4]: 137 ± 11 nM
- IC50 [5]: 685 ± 77 nM
- effect on Nluc reporter signal in cellular nsp2 proteolytic assay [2]: did not increase Nluc reporter signal
- concentrations effective in preventing CHIKV viral infection [6]: higher than 60 µM
